Results from US20160228584A1, “18F -GLUTATHIONE CONJUGATE AS A PET TRACER FOR IMAGING TUMORS OR NEUROLOGICAL DISORDERS THAT OVEREXPRESS L-PGDS ENZYME” (National Tsing Hua University, priority 2015, published 2016).

Experiments:
[1] = target: T1, GST-α (Homo sapiens, UniProt P08263); assay: Radioligand enzymatic binding assay (gel filtration HPLC); conditions: GSTA1-1
T1 construct: purchased Pro SpecTany Techno Gene Ltd ENZ-469
T1 sequence (P08263 1-222): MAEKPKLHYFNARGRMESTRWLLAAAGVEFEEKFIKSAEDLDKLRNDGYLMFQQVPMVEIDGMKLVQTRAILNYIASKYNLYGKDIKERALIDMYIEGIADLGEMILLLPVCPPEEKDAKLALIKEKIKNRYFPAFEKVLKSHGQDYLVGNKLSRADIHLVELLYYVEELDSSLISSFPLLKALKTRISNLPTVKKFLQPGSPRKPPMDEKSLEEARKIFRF
Protocol: (§1) The flow rate was 1 mL/min.
(§2) L-PGDS catalyzes the […] of prostaglandin H2 (PGH2), a metabolite (also known as a prostanoid) derived from arachidonic acid (AA) through oxidation and reduction via the catalysis of COX enzymes. For comparison, mPGES-1, the counterpart of L-PGDS that catalyzes the formation of PGE2 from COX-derived PGH2, was also used in this study. […] Thus, GST-P1 and GST-A1-1 enzymes were only used as negative controls.

[2] = target: GST-π (Homo sapiens, UniProt P09211); assay: as above; conditions: GSTP1
Protocol: as §1, §2

[3] = target: T2, m-PGES (Homo sapiens, UniProt O14684); assay: as above; conditions: mPGES-1
T2 construct: purchased Cayman Chemical Inc
T2 sequence (O14684 1-152): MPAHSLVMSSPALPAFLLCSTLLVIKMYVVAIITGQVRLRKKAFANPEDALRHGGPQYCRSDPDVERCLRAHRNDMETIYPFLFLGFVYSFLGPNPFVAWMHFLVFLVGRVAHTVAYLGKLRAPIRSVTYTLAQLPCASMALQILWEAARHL
Protocol: as §1, §2

[4] = test system: C6 glioma; assay: Cellular uptake of radiotracer in tumor cells; format: cell-based
Protocol: The time point of addition of radio tracer was staggered such that every group could be harvested concurrently. At various times of 0.25, 0.5, 1.5, 3 and 5 h, the collection of the medium was progressing. During harvesting, the radioactive medium was collected from each of the wells, followed by rinsing with PBS […] twice. The medium and rinses (1.5 mL) were combined for counting; the counts were treated as extracellular radioactivity. Subsequently, the cells were lysed with 0.25% trypsin-EDTA ([…]) and the wells were rinsed with PBS twice. Both cells and rinses (1.5 mL) were combined for counting; the counts were treated as intracellular radioactivity. Radioactivity was measured using a scintillation gamma counter (Packard 5000, Packard Instrument Co. laboratory) and decay was corrected. Samples were performed triplicated at each time point for all uptake studies.
The uptake ratio was calculated according to the following expression:
Uptake ratio(%)=Countintracellular=Countextracellular+Countintracellular)×100%

[5] = Ex vivo analysis of biodistribution; format: in vivo; conditions: rat
From the text: The specimens included 1) organ tissues such as brain, liver, spleen, heart, kidney, lung, colon, small bowel, stomach, testes, skull, and muscle, and 2) body fluids such as blood and urine. These specimens were submitted for counting the radioactivity using a solid scintillation gamma counter (Packard 5000, Packard Instrument Co. laboratory). The counting value of each specimen was further divided by the sample weight to give the final expression as percentage of injection dose per sample weight (% ID/g).

[6] = test system: C6 glioma brain tumor; assay: PET imaging of C6-glioma rat brain tumor; format: in vivo; conditions: tail vein injection, three cross sections
Protocol: All studies involving animals were conducted in compliance with federal and institutional guidelines. Two weeks before imaging, healthy male SD rats were stereotactically inoculated in the right hemisphere with 1.0×10^5 C6 glioma cells (American Type Tissue Collection).
After C6 glioma cells were injected into the striatum of the SD rats, the animals were placed on heating pad until they have entirely recovered. When the xenografted tumor size has grown to a size of 1-2 mm in diameter, the animals were transferred to the animal facility under control by the research staff every morning. […] Prior to imaging, all rats were affixed with venous and arterial catheters. The in vivo xenograft C6 glioma was imaged 2 weeks after transplantation procedure, until the volume of the tumor reached 3 mm-5 mm in diameter, well-demarcated from normal brain tissue. Regular oral feeding was proceeded after the animals were recovered from anesthesia.
PET scanning experiments were performed within 72 hours of MRI experiment that used to confirm a successful inoculation of tumors by administering [^18F] FBuEA-GS3 via tail vein injection. Both machines of microPET and nanoPET/CT were employed.
Data were collected in list-mode format for 120 minutes. For reconstruction, the dynamic PET acquisition was divided into six 20-min frames over the scanning duration. […]

[7] = target: T3, L-PGDS (Homo sapiens, UniProt P41222); assay: Competitive inhibition of the production of PGD2 from PGH2 catalysed by L-PGDS (Cayman kit, EIA readout); format: biochemical; conditions: 200 μM of each test compound; duplicate; read-out: inhibition of the formation of PGD2 from PGH2
T3 construct: purchased Cayman 10006595
T3 sequence (P41222 23-190): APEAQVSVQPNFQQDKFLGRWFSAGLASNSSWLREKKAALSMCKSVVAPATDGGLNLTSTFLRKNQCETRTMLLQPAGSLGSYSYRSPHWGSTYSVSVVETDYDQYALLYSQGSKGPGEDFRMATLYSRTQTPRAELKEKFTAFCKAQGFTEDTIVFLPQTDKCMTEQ

With `CCC(CSC[C@@H](NC(=O)CC[C@@H](N)C(=O)O)C(=O)NCC(=O)O)C(=O)c1ccc(OCC(=O)NCCCC[18F])c(Cl)c1Cl` (stereo partly drawn) [[^18F]FBuEA-GS 3, glutathione conjugate of fluorine-18-labeled fluorobutyl ethacrynic amide] the “binding affinity (in words)” value [1] was “weak binding affinities”, the “binding affinity (in words)” value [2] was “weak binding affinities” and the “binding affinity (in words)” value [3] was “did not show any binding affinity”. For the same molecule, the “time to reach steady state of accumulation” value ([4]; cellular uptake) was “approximately 15 min”, the “radioactivity in the brain” value ([5]; brain, 1.0-1.5 mCi injected) was 0.05 % ID/g and the “distribution of radioactivity (in words)” value ([5]; fourteen tissue samples) was “mainly localized in the excretory system”. The “PET imaging of brain tumor (in words)” value [6] was “clear hot spot coinciding to the tumor region detected by MRI imaging”.

Work on `O=c1ccn([C@@H]2O[C@H](CO)[C@@H](O)[C@H]2O)c(=O)[nH]1` [uridine] yielded an inhibition at 200 µM [7] of 5.6 ± 14.3%.

In the case of `C=C(CC)C(=O)c1ccc(OCC(=O)NCCCC[18F])c(Cl)c1Cl` [[^18F]FbuEA 2, fluorine-18-labeled fluorobutyl ethacrynic amide], the “uptake in tumor cells versus normal cells (in words)” value ([4]; tumor cells compared to normal cell) is reported as “lower uptake in tumor cells compared to normal cell”.
